Results reported in patent US20250188085A1, “COMPOSITIONS AND METHODS FOR INHIBITION OF RAS” (THERAS, INC., priority 2022, published 2025).

Key:
[1] = molecular target: T1, GppNHp-loaded KRAS4b (amino acids 1-169) G12C/C118S protein (Homo sapiens, UniProt P01116, C118S/G12C); test: Covalent cysteine 12 modification by MALDI-TOF MS, GppNHp-loaded KRAS G12C; type: binding; conditions: 15 minutes reaction time point
T1 construct: KRAS4b (amino acids 1-169) G12C/C118S protein; made in house
How it was run: (§1)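 KRAS4b 1-169 G12C/C118S loaded with GDP, GppNHp or GTP was used at 1 μM in 20 mM HEPES, 150 mM NaCl, 1 mM MgCl2, pH 7.3, and incubated with compound (5 mM DMSO stock) at room temperature in the dark. % modification at 15 min is adduct peak height over total protein peak heights by linear-mode MALDI-TOF.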

[2] = molecular target: T2, GTP-loaded KRAS4b (amino acids 1-169) G12C/C118S protein (Homo sapiens, UniProt P01116, C118S/G12C); test: Covalent cysteine 12 modification by MALDI-TOF MS, GTP-loaded KRAS G12C; type: binding; conditions: 15 minutes reaction time point
T2 construct: KRAS4b (amino acids 1-169) G12C/C118S protein; made in house
How it was run: as §1

[3] = molecular target: T3, GDP-loaded KRAS4b (amino acids 1-169) G12C/C118S protein (Homo sapiens, UniProt P01116, C118S/G12C); test: Covalent cysteine 12 modification by MALDI-TOF MS, GDP-loaded KRAS G12C; type: binding; conditions: 15 minutes reaction time point
T3 construct: KRAS4b (amino acids 1-169) G12C/C118S protein; made in house
How it was run: as §1

[4] = molecular target: T4, Avi-KRAS G12C (1-169) GppNHp/RAF1 RBD-3×FLAG (52-151) (Homo sapiens, UniProt P01116, G12C); test: Raf1 RBD-KRAS G12C-GppNHp disruption (protein:protein interaction HTRF assay); type: biochemical
T4 construct: Avi-KRAS G12C (1-169) GppNHp/RAF1 RBD-3×FLAG (52-151)
How it was run: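 HTRF measuring disruption of 50 nM Avi-KRAS G12C (1-169) loaded with GppNHp binding RAF1 RBD-3×FLAG (52-151), in pH 7.5 Tris buffer with 5 mM MgCl2, 0.1% BSA, 10% DMSO. KRAS preincubated with compound 1 h, then RBD 1 h, then detection reagents 1 h, all at room temperature. Compound titration 30-0.02 μM; activity expressed as percent of DMSO control.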

pERK in NCI-H358 cells = test: Cell-based pERK HTRF assay; conditions: Homo sapiens, NCI-H358, 0.5 h, 30 min incubation, read-out: pERK in NCI-H358 cell inhibition IC50
How it was run: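 Cells seeded at 4×10^4/well in RPMI with 10% FBS, then next day treated for 30 min with a 9-point, 3-fold series from 75 μM top concentration at 0.25% DMSO. Lysates were read for pERK by HTRF (d2/Eu cryptate antibodies) after 4–24 h at room temperature, emission at 615 nm.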

Row | GppNHp-KRAS G12C percent of modification [1] | GTP-KRAS G12C percent of modification [2] | GDP-KRAS G12C percent of modification [3] | IC50 [4] | IC50 (pERK in NCI-H358 cells) | Compound
1 | D (percent of modification <10%) | D (percent of modification <10%) | A (percent of modification ≥70%) | 0.5 to 5 µM | 0.1 to 1 µM | C=CC(=O)N1CC[C@@H](Oc2nc(OC[C@@]34CCCN3C[C@H](F)C4)nc3c(F)c(-c4ccc(F)c5sc(N)c(C#N)c45)c(Cl)cc23)[C@@H]1COC [Compound 126]
2 | D (percent of modification <10%) | D (percent of modification <10%) | B (50≤percent of modification <70%) | 5 to 20 µM | > 1 µM | C=CC(=O)N1CC[C@@H](Oc2nc(OC[C@@]34CCCN3C[C@H](F)C4)nc3cc(-c4ccc(F)c5sc(N)c(C#N)c45)c(F)cc23)[C@@H]1C [Compound 119]
3 | B (50≤percent of modification <70%) | C (10%≤modification <50%) | C (10%≤modification <50%) | ≤ 0.5 µM | ≤ 0.1 µM | C=CC(=O)N1C[C@H](Oc2nc(OC[C@@]34CCCN3C[C@H](F)C4)nc3cc(-c4ccc(F)c5sc(N)c(C#N)c45)c(C(F)(F)F)cc23)[C@@H](F)C1 [Compound 49]
4 | A (percent of modification ≥70%) | B (50≤percent of modification <70%) | A (percent of modification ≥70%) | ≤ 0.5 µM | ≤ 0.1 µM | C=CC(=O)N1CC[C@@H](Oc2nc(OC[C@@]34CCCN3C[C@H](F)C4)nc3c(F)c(-c4ccc(F)c5sc(N)c(C#N)c45)c(Cl)cc23)[C@H]1C [Compound 94]
5 | D (percent of modification <10%) | D (percent of modification <10%) | B (50≤percent of modification <70%) | 5 to 20 µM | 0.1 to 1 µM | C=CC(=O)N1CC[C@@H](Oc2nc(OC[C@@]34CCCN3C[C@H](F)C4)nc3cc(-c4ccc(F)c5sc(N)c(C#N)c45)c(C#N)cc23)[C@@H]1C [Compound 120]
6 | D (percent of modification <10%) | D (percent of modification <10%) | C (10%≤modification <50%) | 0.5 to 5 µM | 0.1 to 1 µM | C=CC(=O)N1CC[C@@H](Oc2nc(OC[C@@]34CCCN3C[C@H](F)C4)nc3c(F)c(-c4ccc(F)c5sc(N)c(C#N)c45)c(C(F)(F)F)cc23)[C@@H]1CC [Compound 115]

More lines, now with the values behind:

Row | Compound | GppNHp-KRAS G12C percent of modification [1] | GTP-KRAS G12C percent of modification [2] | GDP-KRAS G12C percent of modification [3] | IC50 [4] | IC50 (pERK in NCI-H358 cells)
7 | C=CC(=O)N1CC[C@@H](Oc2nc(OC[C@@]34CCCN3C[C@H](F)C4)nc3c(F)c(-c4ccc(F)c5sc(N)c(C#N)c45)c(C(F)(F)F)cc23)[C@H]1CC [Compound 114] | C (10%≤modification <50%) | C (10%≤modification <50%) | C (10%≤modification <50%) | ≤ 0.5 µM | ≤ 0.1 µM
8 | C=CC(=O)N1CC[C@@H](Oc2nc(OC[C@@]34CCCN3C[C@H](F)C4)nc3c(F)c(-c4ccc(F)c5sc(N)c(C#N)c45)c(C(F)(F)F)cc23)[C@H]1COC (atropisomer, axis not shown) [Compound 95] | A (percent of modification ≥70%) | A (percent of modification ≥70%) | A (percent of modification ≥70%) | ≤ 0.5 µM | ≤ 0.1 µM
9 | C=CC(=O)N1CC[C@@H](Oc2nc(OC[C@@]34CCCN3C[C@H](F)C4)nc3c(F)c(-c4ccc(F)c5sc(N)c(C#N)c45)c(C(F)(F)F)cc23)[C@H]1C [Compound 62, 4-(4-(((2R,3R)-1-acryloyl-2-methylpyrrolidin-3-yl)oxy)-8-fluoro-2-(((2R,7aS)-2-fluorotetrahydro-1H-pyrrolizin-7a (5H)-yl)methoxy)-6-(trifluoromethyl)quinazolin-7-yl)-2-amino-7-fluorobenzo[b]thiophene-3-carbonitrile] | B (50≤percent of modification <70%) | C (10%≤modification <50%) | B (50≤percent of modification <70%) | ≤ 0.5 µM | ≤ 0.1 µM
10 | C=CC(=O)N1C[C@@H](F)[C@@H](Oc2nc(OC[C@@]34CCCN3C[C@H](F)C4)nc3c(F)c(-c4ccc(F)c5sc(N)c(C#N)c45)ncc23)C1 [Compound 70] | A (percent of modification ≥70%) | B (50≤percent of modification <70%) | A (percent of modification ≥70%) | ≤ 0.5 µM | ≤ 0.1 µM
11 | C=CC(=O)N1CC[C@@H](Oc2nc(OC[C@@]34CCCN3C[C@H](F)C4)nc3cc(-c4ccc(F)c5sc(N)c(C#N)c45)c(C#N)cc23)[C@@H]1COC [Compound 128] | D (percent of modification <10%) | D (percent of modification <10%) | C (10%≤modification <50%) | > 20 µM | > 1 µM
12 | C=CC(=O)N1C[C@H](Oc2nc(OC[C@@]34CCCN3C[C@H](F)C4)nc3cc(-c4ccc(F)c5sc(N)c(C#N)c45)c(C(F)(F)F)nc23)C[C@H]1C [Compound 83] | B (50≤percent of modification <70%) | C (10%≤modification <50%) | A (percent of modification ≥70%) | ≤ 0.5 µM | ≤ 0.1 µM
13 | C=CC(=O)N1CC[C@@H](Oc2nc(OC[C@@]34CCCN3C[C@H](F)C4)nc3c(F)c(-c4ccc(F)c5sc(N)c(C#N)c45)ccc23)[C@H]1C [Compound 76, 4-(4-(((2R,3R)-1-acryloyl-2-methylpyrrolidin-3-yl)oxy)-8-fluoro-2-(((2R,7aS)-2-fluorotetrahydro-1H-pyrrolizin-7a (5H)-yl)methoxy)quinazolin-7-yl)-2-amino-7-fluorobenzo[b]thiophene-3-carbonitrile] | A (percent of modification ≥70%) | A (percent of modification ≥70%) | A (percent of modification ≥70%) | ≤ 0.5 µM | ≤ 0.1 µM
14 | C=CC(=O)N1CC[C@@H](Oc2nc(OC[C@@]34CCCN3C[C@H](F)C4)nc3c(F)c(-c4ccc(F)c5sc(N)c(C#N)c45)ccc23)[C@@H]1COC [Compound 125] | D (percent of modification <10%) | D (percent of modification <10%) | C (10%≤modification <50%) | > 20 µM | > 1 µM
15 | C=CC(=O)N1C[C@H](Oc2nc(OC[C@@]34CCCN3C[C@H](F)C4)nc3c(F)c(-c4ccc(F)c5sc(N)c(C#N)c45)ccc23)C[C@H]1C [Compound 68] | A (percent of modification ≥70%) | C (10%≤modification <50%) | A (percent of modification ≥70%) | ≤ 0.5 µM | 0.1 to 1 µM
16 | C=CC(=O)N1CC[C@@H](Oc2nc(OC[C@@]34CCCN3C[C@H](OC)C4)nc3cc(-c4ccc(F)c5sc(N)c(C#N)c45)c(C(F)(F)F)cc23)[C@H]1C [Compound 102] | A (percent of modification ≥70%) | A (percent of modification ≥70%) | A (percent of modification ≥70%) | ≤ 0.5 µM | ≤ 0.1 µM
